PMC11091967, “Silicon-Rhodamine Functionalized Evocalcet Probes Potently and Selectively Label Calcium Sensing Receptors In Vitro, In Vivo, and Ex Vivo” (ACS Pharmacology & Translational Science, 2024)

Experiments:
[1] = Photophysical characterization; format: physicochemical; design: λex / λem: unit not given here; conditions: for quantum yield Φ: 94% ethanol, 750 nM, relative to Rhodamine B; for λem / λex: Table 1; for extinction coefficient ε: absorbance at 150–1350 nM, 1 cm cuvette
[2] = tested on: human parathyroid adenomas; assay: Ex vivo labeling of surgically resected human parathyroid adenomas
Procedure: The part of the study involving human tissues has been registered at clinicaltirals.gov and can be retrieved under the ID: NCT03831620. The study was approved by the ethics commission of canton Bern, Switzerland (KEKBE 2018–02218). Written informed consent was obtained from all patients. Human parathyroid tissues were surgically resected and were immediately put on dry ice and stored at −80 °C. The tissues were thawed at 4 °C and were washed with PBS thoroughly. The labeling of the tissues was achieved using 500 nM EvoSiR4 for 30 min in PBS containing 0.1% BSA. After labeling, the tissues were washed twice with PBS containing 0.1% BSA. For evocalcet competition experiments, the tissues were coincubated with EvoSiR4 and evocalcet in a 1:5 molar ratio for 30 min and then washed twice with PBS containing 0.1% BSA. The images were acquired using an IVIS Spectrum in vivo imaging system with a λex of 780 nm and λem of 840 nm for the autofluorescence (ICG channel) and with a λex of 650 nm and λem of 670 nm for the EvoSiR label (Cy5 channel).

human CaSR = biological target: T1, human CaSR (Homo sapiens, UniProt P41180); assay: In vitro labeling of CaSR expressing (HCAR) and control (CCL39) cells, fluorescence microscopy; format: cell-based; conditions: for fold increase in skewness of pixel intensity distribution, CaSR+ (HCAR) vs CaSR- (CCL39) cells: 500 nM probe; for fold mean fluorescence difference between CaSR+ and CaSR- cells: 72 h incubation
T1 construct: host or cells: CCL39 hamster lung fibroblasts stably transfected (HCAR), Geneticin selection
T1 sequence (P41180 20-1078): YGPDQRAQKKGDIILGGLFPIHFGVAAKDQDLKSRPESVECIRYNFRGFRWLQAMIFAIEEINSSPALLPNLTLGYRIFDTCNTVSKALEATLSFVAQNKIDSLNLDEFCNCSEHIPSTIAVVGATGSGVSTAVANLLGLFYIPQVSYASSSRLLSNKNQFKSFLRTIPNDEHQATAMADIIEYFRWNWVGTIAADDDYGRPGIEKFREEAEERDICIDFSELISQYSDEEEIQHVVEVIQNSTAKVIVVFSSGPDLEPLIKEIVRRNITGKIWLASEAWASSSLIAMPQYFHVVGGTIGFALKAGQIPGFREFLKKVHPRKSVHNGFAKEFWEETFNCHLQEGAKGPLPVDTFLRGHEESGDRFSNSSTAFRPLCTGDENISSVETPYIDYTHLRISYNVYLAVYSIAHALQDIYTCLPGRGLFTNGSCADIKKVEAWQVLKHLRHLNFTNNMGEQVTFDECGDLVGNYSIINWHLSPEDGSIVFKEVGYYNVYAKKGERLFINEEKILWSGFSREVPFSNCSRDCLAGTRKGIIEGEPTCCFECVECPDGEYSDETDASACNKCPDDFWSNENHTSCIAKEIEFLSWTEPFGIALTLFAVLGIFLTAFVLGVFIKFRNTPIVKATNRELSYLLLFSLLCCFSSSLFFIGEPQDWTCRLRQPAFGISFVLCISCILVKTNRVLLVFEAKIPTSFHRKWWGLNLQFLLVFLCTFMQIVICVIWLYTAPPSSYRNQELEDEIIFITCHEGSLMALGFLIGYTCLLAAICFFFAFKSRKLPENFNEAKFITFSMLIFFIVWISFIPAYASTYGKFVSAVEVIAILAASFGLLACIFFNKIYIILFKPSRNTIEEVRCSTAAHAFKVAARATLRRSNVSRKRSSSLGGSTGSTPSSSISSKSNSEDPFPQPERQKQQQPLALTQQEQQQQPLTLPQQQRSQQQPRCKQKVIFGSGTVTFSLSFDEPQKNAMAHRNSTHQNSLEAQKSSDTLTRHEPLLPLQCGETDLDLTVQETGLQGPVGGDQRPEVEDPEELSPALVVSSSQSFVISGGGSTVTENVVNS
Procedure: HCAR (CaSR+) and CCL39 (CaSR−) cells were kindly obtained from Novartis AG (Basel, Switzerland) and validated in house. The cells were seeded into μ-slide 18 well plates (ibidi, 81816) at a density of 5000 cells per well and were incubated for 24 h under standard culturing conditions. As our preliminary data indicated considerable nonspecific labeling of dying cells and cellular debris, a viability staining was introduced to ensure probe specificity.[29] Thus, after washing twice with HBSS, cells were incubated in 10 μM Calcein AM solution containing 0.02% Pluronic F-127 and 0.1% DMSO for 45 min at 37 °C. The solution was then removed and washed twice in HBSS before the addition of the HBSS solution containing the SiR probes. All probe solutions were protected from light exposure and contained 0.5% DMSO and various concentrations of BSA depending on the experiment. Incubation with the fluorescent probes was 20 min long, after which a single washing step was introduced with HBSS before imaging. Images of the cells (Calcein: FITC channel, SiR: Cy5 channel) were acquired with a Nikon Eclipse TI2 inverted wide-field fluorescence microscope using a 60× magnification oil immersion objective (Nikon CFI Plan Fluor, 60×, NA = 0.85). For each well, a minimum of 3 images were acquired. For each image, cells were segmented to generate labels on the FITC channel postacquisition using the deep neural network-based Cellpose package in Python 3.9 (model_type: cyto2, diameter: 200, flow_threshold: 0.4).[30] To normalize pixel intensity values across images, for each image, a background value was calculated by taking the average pixel intensity value of the pixels in which no cellular label was present and were negative for the EvoSiR label (triangle thresholding used). For each cell, the skewness of the value distribution and the mean of the Cy5 pixel intensities were calculated. The procedure for evaluating the long-term labeling (72 h) of EvoSiR probes on CCL39 and HCAR cells was similar, with the following modifications: images were retrieved using 10× magnification air objectives (Nikon CFI Plan Fluor 10×, NA = 0.3), in the neural network model, the diameter parameter was set to 30, and only the mean Cy5 pixel intensities per cell object were retrieved.

Row | SMILES | fluorescence lifetime τ [1] | quantum yield Φ [1] | λem [1] | λex [1] | extinction coefficient ε [1] | concentration above which marked increase in tissue fluorescence ([2]; 650 nm excitation) | fold increase in skewness of pixel intensity distribution, CaSR+ (HCAR) vs CaSR- (CCL39) cells (human CaSR; 0.1% BSA) | concentration above which skewness significantly increased for HCAR compared to CCL39 (human CaSR; 1% BSA) | fold mean fluorescence difference between CaSR+ and CaSR- cells (human CaSR; 50 nM) | fold mean fluorescence difference between CaSR+ and CaSR- cells (human CaSR; 200 nM) | concentration at which skewness values saturate (human CaSR; HCAR (CaSR+) cells, 0.1% BSA) | concentration above which skewness significantly increased for HCAR compared to CCL39 (human CaSR; no BSA and 0.1% BSA) | decrease in tissue fluorescence upon evocalcet competition ([2]; 500 nM EvoSiR4 co-administered with 2.5 μM evocalcet) | reduction in skewness of pixel intensity distribution of EvoSiR4 labeling by competition (human CaSR; CaSR+ cells preincubated with 0–500 nM evocalcet in 0.1% BSA)
1 | Cc1cc(C(=O)NCCCCNC(=O)Cc2ccc(N3CC[C@H](N[C@H](C)c4cccc5ccccc45)C3)cc2)ccc1C1=C2C=CC(=[N+](C)C)C=C2[Si](C)(C)c2cc(N(C)C)ccc21 [EvoSiR4] | 2.43 ± 0.164 ns | 0.288 | 670 | 650 | 14,175 M^–1 cm^–1 | > 500 nM | 3.7 fold | above 2500 nM | 1.3 fold | 2.5 fold | 500 nM | above 500 nM | – | –
2 | Cc1cc(C(=O)NCCCCCCNC(=O)Cc2ccc(N3CC[C@H](N[C@H](C)c4cccc5ccccc45)C3)cc2)ccc1C1=C2C=CC(=[N+](C)C)C=C2[Si](C)(C)c2cc(N(C)C)ccc21 [EvoSiR6] | 2.33 ± 0.135 ns | 0.278 | 670 | 650 | 16,601 M^–1 cm^–1 | – | 2.3 fold | – | – | – | – | – | – | –
3 | C[C@@H](N[C@H]1CCN(c2ccc(CC(=O)O)cc2)C1)c1cccc2ccccc12 [evocalcet] | – | – | – | – | – | – | – | – | – | – | – | – | 64% | 55%
